Assay results as given in patent US20170114128A1, “USE OF TGF-BETA ANTAGONISTS OF TREAT TYPE-2 DIABETES” (ALBERT EINSTEIN COLLEGE OF MEDICINE, INC., priority 2014, published 2017).

Tests used:
hypothalamic GT1-7 cells = test: IκBα mRNA levels in GT1-7 cells after TGF-β1 treatment; format: cell-based; conditions: GT1-7 cells, TGF-β1 10 ng/ml
From the text: (§1) TGF-β degrades IκBα mRNA to atypically activate NF-κB: RNA SGs/PBs have the function to degrade mRNAs by targeting the AU-rich element (AUE) at the 3′ untranslated region (UTR) (36-38). […] This information led to the suspicion that TGF-β could work to degrade IκBα mRNA. […] To test if TGF-β induced IκBα mRNA decay is accountable for the glucose metabolism disorder, an experiment was designed to study if the pro-diabetic effect of brain TGF-β excess could be reversed through directly increasing hypothalamic IκBα mRNA. Using an approach which was established previously (23), a lentiviral system was employed to deliver exogenous Iκbα mRNA into the mediobasal hypothalamus of chow-fed C57BL/6 mice, and indeed, this lentivirus-delivered Iκbα mRNA prevented TGF-β1 injection from activating hypothalamic NF-κB (FIG. 5f). Metabolic analysis confirmed that this treatment attenuated the effect of TGF-β1 from impairing insulin-dependent glucose control (FIG. 5g).
Cell culture. GT1-7 cells were cultured as described previously (14). Briefly, GT1-7 cells were maintained in Dulbecco's Modified Eagle's Medium (Invitrogen) with 10% fetal bovine serum (Hyclone) and penicillin/streptomycin (Invitrogen), at 37° C. in a humidified atmosphere containing 5% CO2. Cells were fasted in serum-free medium for an overnight period, and then were subjected to TGF-β1 treatment at the indicated dose and time course.

HEK 293 cells = test: IκBα mRNA levels in HEK 293 cells after TGF-β1 treatment; format: cell-based; conditions: HEK 293 cells (data not shown)
From the text: as §1

Myd88 knockout mice = test: Third-ventricle TGF-β1 delivery in Myd88 knockout mice; format: in vivo; conditions: hypothalamic third ventricle; data not shown
From the text: To further assess this point, it was asked if the effects of brain TGF-β excess could be impaired by ablation of a signaling component, such as toll-like receptor-4 (TLR4) or myeloid differentiation primary response gene 88 (MyD88), because they employ kinase signaling to induce IκBα phosphorylation and thus NF-κB activation. Using a genetic model, T1r4 knockout (T1r4−/−) mice, TGF-β1 or vehicle was delivered into the hypothalamic third ventricle of these mice and littermate WT mice via pre-implanted cannula. Vehicle-injected T1r4−/− mice and WT mice were both normal in glucose and insulin tolerance tests (FIG. 4a, b). […] Altogether, brain TGF-β excess may use a mechanism that directly targets IκBα rather than upstream kinase signaling to activate hypothalamic NF-κB.

normal C57BL/6 mice = test: Hyperinsulinemic-euglycemic clamp after third-ventricle TGF-β1; format: in vivo
From the text: Brain TGF-β excess increases hepatic glucose production: In physiology, blood glucose levels are balanced by glucose uptake in metabolic tissues (such as muscles) and glucose production in the liver. A hyperinsulinemic-euglycemic clamp was employed to analyze if any of these metabolic processes was relevant to the pro-diabetic effect of brain TGF-β excess. In the experiment, normal C57BL/6 mice were pre-implanted with a catheter into the jugular vein and also a cannula into the hypothalamic third ventricle. Following surgical recovery, overnight-fasted mice were injected with TGF-β1 (4 ng) using the same protocol as described in FIG. 1e, and were subjected to the clamp procedure. During the clamp period, blood glucose concentrations were maintained at approximate 120-130 mg/dl, with steady insulin infusion (4 mU kg^−1 min^−1) together with various rates of 20% glucose infusion to maintain euglycemia. […] While the basal blood insulin concentrations in TGF-β-injected mice were higher which indicated insulin resistance, constant insulin infusion in the clamp elevated the blood insulin concentrations of these mice and controls to similar levels. […] Blood glucagon concentrations were similar between TGF-β1-treated mice and controls. Therefore, the brain-liver axis mediates the pro-diabetic effect of brain TGF-β excess.
Hyperinsulinemic-euglycemic clamp. Mice that were pre-implanted with cannula in the third ventricle were anesthetized, and a catheter was inserted into the right jugular vein and crossed over from the underneath and out the back of the neck. Following surgical recovery, overnight-fasted mice were injected with TGF-β1 (4 ng) vs. vehicle, once at the beginning of fasting and the other in the following morning at four hours prior to clamp. Conscious mice were then subjected to euglycemic clamp, with the blood glucose concentrations maintained at 120-130 mg/dl for four hours, followed by steady-state human insulin infusion (4 mU kg−1 min−1) together with infusion of 20% glucose at variable rates to maintain euglycemia. During the final 1 hour of the clamp, [3-^3H] glucose and 2-deoxy-D-[1-^14C] glucose (PerkinElmer) infusions were used. Blood samples were collected from tail vein. At the end of the procedure, mice were euthanized, and various tissues were removed and quickly frozen in liquid nitrogen. Plasma insulin and glucagon concentrations were analyzed with ELISA kits (Crystal Chem. and R&D Systems).

[1] = TGF-β1 concentrations in CSF and blood after third-ventricle injection; format: in vivo, mice
Protocol: Brain TGF-β excess impairs glucose tolerance: To study the metabolic effects of brain TGF-β excess, a pharmacological approach was first used by which TGF-β was delivered into the hypothalamic third ventricle of normal C57BL/6 mice via pre-implanted cannula. To optimize the dosage, different doses of TGF-β1 (0, 0.5, 1.0, and 4.0 ng) were injected, and TGF-β1 concentrations measured in the CSF at various time points post-injection. […] Based on this condition, overnight-fasted mice were given intra-third ventricle injections of TGF-β1 in these doses, one injection at night after food was removed, and the second injection in the following morning at 4 hours prior to glucose tolerance test (GTT). […] In sum, a pharmacological induction of brain TGF-β excess can acutely cause pre-diabetic changes including glucose intolerance and insulin resistance.
Protein, mRNA and peptide analyses. Hypothalami were isolated as previously described (14). Tissue lysis, SDS/PAGE and Western blotting were performed as previously described (19). Primary antibodies in Western blots included anti-IκBα (Santa Cruz, #SC847, 1:500), anti-p-TAK1 (Cell Signaling, #4531, 1:1000), anti-p-IκBα (Cell Signaling, #2859, 1:1000), anti-RelA (Cell Signaling, #3039, 1:1000), anti-p-RelA (Cell Signaling, #4764, 1:1000), and anti-β-actin (Cell Signaling, #4967S, 1:1000), and secondary antibodies were HRP-conjugated anti-rabbit or goat antibody (Pierce, 1:2000). Quantification of Western blots was processed with Image J. Total RNA was extracted from hypothalamic tissue using TRIzol® (Invitrogen), and cDNA was synthesized using M-MLV RT System (Promega). Using SYBR® Green PCR Master Mix (Applied Biosystems), expression levels of target genes were analyzed via PCR amplification and quantification. GAPDH or TBP mRNA levels were used for normalization. […] Serum and CSF TGF-β content were measured using TGF-β ELISA kit (R&D Systems).

For “TGF-β1: transforming growth factor-β1 (Sigma), cytokine dissolved in artificial cerebrospinal fluid for third-ventricle injection”, the “IκBα mRNA levels” value (hypothalamic GT1-7 cells) was “notably decreased”, the “IκBα mRNA levels” value (HEK 293 cells) was “notably decreased” and the “effect of lack of Myd88 on glucose or insulin intolerance following TGF-β1 delivery” value (Myd88 knockout mice) was “did not lead to a significant reduction”. For the same substance, the “glucose infusion rate, lower than vehicle-injected mice” value (normal C57BL/6 mice; 4 ng, clamp, insulin 4 mU kg^−1 min^−1, on average) was 80%, the “hepatic glucose production vs control” value (normal C57BL/6 mice; basal condition) was “higher” and the “basal blood insulin concentrations” value (normal C57BL/6 mice; basal, vs controls) was “higher”. The “rates of glucose disposal vs vehicle” value (normal C57BL/6 mice; clamp, 4 ng) was “similar”, the “suppression of hepatic glucose production by insulin infusion” value (normal C57BL/6 mice; during clamp) was “failed to do so” and the “blood glucagon concentrations vs controls” value (normal C57BL/6 mice; mouse, in vivo) was “similar”. The “glucose infusion rates vs vehicle-injected mice” value (normal C57BL/6 mice; since the first 20 min of clamp) was “significantly lower”, the “CSF TGF-β1 concentration relative to basal concentration” value ([1]; 60 min post-injection) was “roughly 2 fold” and the “blood TGF-β1 concentration” value ([1]; doses 0.5, 1.0, 4.0 ng in third ventricle) was “None of these doses significantly increased”. For the same substance, the “time of peak increase of CSF TGF-β1 concentration” value ([1]; post-injection, third ventricle, 0.5-4.0 ng, dose-dependent) was 15 min.
